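96-well plates; 48 h exposure; 5 concentrations. Endpoints by linear interpolation between flanking doses. Not reached: highest tested concentration assigned. The concentration for 50% growth inhibition is given as GI50.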 Active and inactive are the calls of the source. No stated cut-off is given here; in the data, active = GI50 up to about 1.1 µM and inactive = higher.
What was measured:
Assay in all cases: inhibition of tumour cell growth, NCI panel, 48 h
[1] = test system: SNB-19
[2] = test system: SK-OV-3
[3] = test system: OVCAR-8
[4] = test system: MCF7
[5] = test system: SW-620
[6] = test system: TK-10
[7] = test system: NCI-H522
[8] = test system: MOLT-4
[9] = test system: M14
[10] = test system: SNB-75
[11] = test system: COLO 205
[12] = test system: 786-0
[13] = test system: HCT-116
[14] = test system: SF-295
[15] = test system: HOP-92
[16] = test system: UACC-62
[17] = test system: A498
[18] = test system: RXF 393
[19] = test system: Malme-3M

Measured: GI50

CN(C)C12C=CC=CC3=C(c4ccccc4)C(c4ccccc4)=C(c4ccccc4)C31c1ccccc1C2 (stereo not given)
inactive: [1] > 100 µM | [2] > 100 µM | [3] > 100 µM | [4] > 100 µM | [5] > 100 µM | [6] > 100 µM | [7] > 100 µM | [8] > 100 µM | [9] > 100 µM | [10] > 100 µM | [11] > 100 µM | [12] > 100 µM | [13] > 100 µM | [14] > 100 µM

CSc1nnc2n1-c1ccccc1SCC2
inactive: [1] > 100 µM | [15] > 100 µM | [2] > 100 µM | [3] > 100 µM | [5] > 100 µM | [16] > 100 µM | [6] > 100 µM | [7] > 100 µM | [8] > 100 µM | [9] > 100 µM | [10] > 100 µM | [11] > 100 µM | [12] > 100 µM | [13] > 100 µM | [14] > 100 µM | [17] > 100 µM | [18] > 100 µM | [19] > 100 µM

C1=Cc2nc1c(-c1ccccc1)c1nc(c(-c3ccccc3)c3ccc([nH]3)c(-c3ccccc3)c3ccc([nH]3)c2-c2ccccc2)C=C1 [TETRAPHENYLPORPHYRIN]
inactive: [1] > 100 µM | [15] > 100 µM | [2] > 100 µM | [3] > 100 µM | [5] > 100 µM | [16] > 100 µM | [6] > 100 µM | [7] > 100 µM | [8] > 100 µM | [9] > 100 µM | [10] > 100 µM | [11] > 100 µM | [12] > 100 µM | [13] > 100 µM | [14] > 100 µM | [17] > 100 µM | [19] > 100 µM

CNC(=O)NCCCC(NC(C)=O)C(=O)NCc1ccccc1 (stereo not given)
inactive: [1] > 100 µM | [15] 92.9 µM | [2] > 100 µM | [3] > 100 µM | [5] > 100 µM | [16] > 100 µM | [6] > 100 µM | [7] > 100 µM | [8] > 100 µM | [9] > 100 µM | [10] 42.2 µM | [11] > 100 µM | [12] > 100 µM | [13] > 100 µM | [14] > 100 µM | [17] > 100 µM | [18] > 100 µM | [19] > 100 µM

O=C(O)C(Cc1ccccc1)NCc1c(O)ccc2c(-c3ccccc3)cc(=O)oc12 (stereo not given)
inactive: [1] > 100 µM | [15] > 100 µM | [2] > 100 µM | [3] > 100 µM | [4] > 100 µM | [5] > 100 µM | [16] > 100 µM | [6] > 100 µM | [7] > 100 µM | [8] > 100 µM | [9] > 100 µM | [10] > 100 µM | [11] > 100 µM | [12] > 100 µM | [13] > 100 µM | [14] > 100 µM | [18] > 100 µM | [19] > 100 µM

COc1nc2sc3c(c2c(=O)n1CCCSSCCCn1c(OC)nc2sc4c(c2c1=O)CCCC4)CCCC3
inactive: [1] > 100 µM | [15] > 100 µM | [2] > 100 µM | [3] > 100 µM | [4] > 100 µM | [16] > 100 µM | [6] > 100 µM | [7] > 100 µM | [8] > 100 µM | [9] > 100 µM | [10] > 100 µM | [11] > 100 µM | [12] > 100 µM | [13] > 100 µM | [14] > 100 µM | [18] > 100 µM | [19] > 100 µM

CC1(C)OC2C(O1)[C@H]1OC(C(Cl)(Cl)Cl)=N[C@H]1C(I)[C@H]2N1C(=O)c2ccccc2C1=O (stereo not given in full)
inactive: [1] > 100 µM | [15] 40.6 µM | [3] > 100 µM | [5] > 100 µM | [16] 54.5 µM | [7] 24.5 µM | [8] 26.1 µM | [9] 69.3 µM | [10] 56.9 µM | [11] 33.6 µM | [12] > 100 µM | [13] 47.1 µM | [14] 56.4 µM | [17] > 100 µM | [18] 28.9 µM

NCCCC1NC(=O)/C(=C(O)/C=C/C2CCC[C@@H]2CC2SCCS2)C1=O (stereo not given in full)
inactive: [1] > 100 µM | [15] 38.3 µM | [2] > 100 µM | [3] > 100 µM | [5] 57 µM | [16] > 100 µM | [6] > 100 µM | [7] 29 µM | [8] 43.4 µM | [9] > 100 µM | [10] > 100 µM | [11] 37.2 µM | [12] > 100 µM | [13] > 100 µM | [14] > 100 µM | [17] > 100 µM | [18] > 100 µM | [19] > 100 µM

From ChEMBL document CHEMBL1201862, “PubChem BioAssay data set” (2004)
